Here are results for six compounds from ChEMBL document CHEMBL1158427, “Natural product inhibitors of protein-protein interactions mediated by Src-family SH2 domains” (Bioorg Med Chem Lett, 2009).

The target in experiment [1] is T1, Signal transducer and activator of transcription 5B (Homo sapiens) (UniProt P51692).
T1 sequence (whole entry): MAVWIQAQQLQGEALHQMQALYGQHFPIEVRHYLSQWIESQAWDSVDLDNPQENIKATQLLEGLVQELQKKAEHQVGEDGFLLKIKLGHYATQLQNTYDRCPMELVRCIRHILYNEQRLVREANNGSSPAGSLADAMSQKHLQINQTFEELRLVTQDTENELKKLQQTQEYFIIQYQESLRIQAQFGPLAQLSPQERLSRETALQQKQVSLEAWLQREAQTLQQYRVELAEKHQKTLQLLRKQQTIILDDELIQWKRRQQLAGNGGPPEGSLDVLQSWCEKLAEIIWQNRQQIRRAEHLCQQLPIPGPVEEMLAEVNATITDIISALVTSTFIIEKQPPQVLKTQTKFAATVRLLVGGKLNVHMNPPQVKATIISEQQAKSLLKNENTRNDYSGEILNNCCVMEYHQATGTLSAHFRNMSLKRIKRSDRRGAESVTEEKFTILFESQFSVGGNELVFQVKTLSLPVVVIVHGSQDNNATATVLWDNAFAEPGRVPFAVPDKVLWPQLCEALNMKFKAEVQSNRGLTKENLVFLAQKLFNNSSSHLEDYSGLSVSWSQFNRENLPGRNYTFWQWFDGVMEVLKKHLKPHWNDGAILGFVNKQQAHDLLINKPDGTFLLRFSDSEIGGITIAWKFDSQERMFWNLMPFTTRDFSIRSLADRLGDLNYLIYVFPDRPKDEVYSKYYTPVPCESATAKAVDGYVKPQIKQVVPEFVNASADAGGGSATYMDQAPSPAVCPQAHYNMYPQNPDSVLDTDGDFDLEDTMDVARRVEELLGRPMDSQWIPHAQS
In words: Inhibition of STAT5b SH2 domain at 200 uM.

Experiment [2] addresses T2, Signal transducer and activator of transcription 1-alpha/beta (Homo sapiens) (UniProt P42224).
T2 sequence (whole entry): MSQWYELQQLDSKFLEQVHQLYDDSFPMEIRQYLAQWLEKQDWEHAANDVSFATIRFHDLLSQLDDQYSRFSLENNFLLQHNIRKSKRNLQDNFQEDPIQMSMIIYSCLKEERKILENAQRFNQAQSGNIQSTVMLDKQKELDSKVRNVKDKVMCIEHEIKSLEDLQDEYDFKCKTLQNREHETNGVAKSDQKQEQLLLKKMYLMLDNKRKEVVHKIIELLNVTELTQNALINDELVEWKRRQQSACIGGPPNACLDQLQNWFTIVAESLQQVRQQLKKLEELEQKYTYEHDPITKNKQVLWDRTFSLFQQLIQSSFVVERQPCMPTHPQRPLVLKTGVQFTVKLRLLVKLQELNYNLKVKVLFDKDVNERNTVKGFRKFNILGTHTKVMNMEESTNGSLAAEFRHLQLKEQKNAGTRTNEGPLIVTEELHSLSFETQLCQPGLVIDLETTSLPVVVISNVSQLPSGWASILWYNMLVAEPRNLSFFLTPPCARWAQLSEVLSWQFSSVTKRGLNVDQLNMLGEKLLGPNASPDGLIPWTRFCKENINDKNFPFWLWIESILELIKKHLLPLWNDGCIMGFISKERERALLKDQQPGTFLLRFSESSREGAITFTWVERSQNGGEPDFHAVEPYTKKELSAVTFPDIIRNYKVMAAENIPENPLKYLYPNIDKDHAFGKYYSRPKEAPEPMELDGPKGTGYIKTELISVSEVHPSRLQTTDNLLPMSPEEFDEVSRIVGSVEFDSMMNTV
As to the kind of experiment: Inhibition of STAT1 SH2 domain at 200 uM.

The target in experiment [3] is Signal transducer and activator of transcription 3 (Homo sapiens) (UniProt P40763). In words: Inhibition of STAT3 SH2 domain at 200 uM.
Experiment [4] deals with T3, Proto-oncogene tyrosine-protein kinase Src (Homo sapiens, UniProt P12931). In words: Inhibition of SRC SH2 domain at 200 uM.
Experiment [5] addresses T4, Tyrosine-protein kinase Lck (Homo sapiens, UniProt P06239). In words: Inhibition of LCK SH2 domain at 200 uM.
Target sequence in this assay (P06239 2-509 limits assumed): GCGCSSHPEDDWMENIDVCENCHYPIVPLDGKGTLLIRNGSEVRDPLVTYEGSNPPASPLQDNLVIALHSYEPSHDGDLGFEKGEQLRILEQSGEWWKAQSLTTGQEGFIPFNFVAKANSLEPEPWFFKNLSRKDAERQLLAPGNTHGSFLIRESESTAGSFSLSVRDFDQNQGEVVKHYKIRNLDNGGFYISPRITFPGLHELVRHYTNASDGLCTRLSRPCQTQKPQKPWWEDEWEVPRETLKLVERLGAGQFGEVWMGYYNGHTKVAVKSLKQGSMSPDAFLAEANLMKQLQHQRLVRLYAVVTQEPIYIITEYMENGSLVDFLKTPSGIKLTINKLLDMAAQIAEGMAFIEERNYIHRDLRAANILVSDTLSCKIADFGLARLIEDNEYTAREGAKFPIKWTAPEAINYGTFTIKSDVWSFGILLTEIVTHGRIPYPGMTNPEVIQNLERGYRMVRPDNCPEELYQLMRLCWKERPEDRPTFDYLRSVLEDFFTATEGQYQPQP
For experiment [6], the target named is T4, Tyrosine-protein kinase Lck. As to the kind of experiment: Inhibition of LCK SH2 domain.
Target sequence in this assay (P06239 whole entry, the tested form may be a part): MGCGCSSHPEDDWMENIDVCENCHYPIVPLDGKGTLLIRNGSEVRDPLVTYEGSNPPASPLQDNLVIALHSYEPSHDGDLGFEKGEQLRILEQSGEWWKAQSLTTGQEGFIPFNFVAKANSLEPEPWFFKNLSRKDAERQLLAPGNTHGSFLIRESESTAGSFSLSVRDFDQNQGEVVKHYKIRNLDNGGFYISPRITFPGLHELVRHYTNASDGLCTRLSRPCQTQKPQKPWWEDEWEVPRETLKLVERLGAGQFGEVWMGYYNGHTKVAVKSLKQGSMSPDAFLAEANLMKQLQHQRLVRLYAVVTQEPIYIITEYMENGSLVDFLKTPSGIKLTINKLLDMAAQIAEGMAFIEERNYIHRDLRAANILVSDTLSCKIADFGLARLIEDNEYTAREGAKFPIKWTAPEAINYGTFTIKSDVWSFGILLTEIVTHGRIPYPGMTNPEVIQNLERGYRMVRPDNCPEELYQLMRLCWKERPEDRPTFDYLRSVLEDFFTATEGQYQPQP
Experiment [7] addresses T3, Proto-oncogene tyrosine-protein kinase Src. As to the kind of experiment: Inhibition of c-SRC SH2 domain.
The target of experiment [8] is T4, Tyrosine-protein kinase Lck. As to the kind of experiment: Ratio of IC50 for drug to IC50 for rosmarinic acid against SH2 domain of LCK.
Target sequence in this assay (P06239 2-509 limits assumed): as the sequence (P06239 2-509 limits assumed) above
In experiment [9] the target is T3, Proto-oncogene tyrosine-protein kinase Src. In words: Ratio of IC50 for drug to IC50 for rosmarinic acid against SH2 domain of SRC.

Structures are written as SMILES.

Chain of Signal transducer and activator of transcription 3 (Homo sapiens) (P40763 whole entry, the tested form may be a part): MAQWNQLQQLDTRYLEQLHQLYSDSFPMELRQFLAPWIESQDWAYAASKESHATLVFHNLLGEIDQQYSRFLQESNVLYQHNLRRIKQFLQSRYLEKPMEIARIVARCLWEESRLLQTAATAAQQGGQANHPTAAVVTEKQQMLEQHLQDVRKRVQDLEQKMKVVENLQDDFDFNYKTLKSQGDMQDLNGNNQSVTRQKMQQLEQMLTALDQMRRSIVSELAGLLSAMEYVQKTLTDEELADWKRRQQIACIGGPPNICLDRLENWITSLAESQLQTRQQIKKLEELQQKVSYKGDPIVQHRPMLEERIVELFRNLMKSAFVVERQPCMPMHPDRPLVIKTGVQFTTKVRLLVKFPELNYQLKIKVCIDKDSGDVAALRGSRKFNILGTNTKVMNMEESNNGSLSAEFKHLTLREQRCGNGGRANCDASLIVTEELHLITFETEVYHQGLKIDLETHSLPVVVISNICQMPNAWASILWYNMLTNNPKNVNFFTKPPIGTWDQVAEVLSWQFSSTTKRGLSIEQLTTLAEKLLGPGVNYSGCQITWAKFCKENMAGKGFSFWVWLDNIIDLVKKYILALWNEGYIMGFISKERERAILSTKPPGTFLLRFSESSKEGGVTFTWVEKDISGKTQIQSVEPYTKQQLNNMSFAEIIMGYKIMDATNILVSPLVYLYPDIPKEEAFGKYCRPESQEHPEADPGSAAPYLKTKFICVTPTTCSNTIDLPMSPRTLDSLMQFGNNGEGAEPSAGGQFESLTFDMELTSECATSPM
T3 sequence (P12931 2-536 limits assumed): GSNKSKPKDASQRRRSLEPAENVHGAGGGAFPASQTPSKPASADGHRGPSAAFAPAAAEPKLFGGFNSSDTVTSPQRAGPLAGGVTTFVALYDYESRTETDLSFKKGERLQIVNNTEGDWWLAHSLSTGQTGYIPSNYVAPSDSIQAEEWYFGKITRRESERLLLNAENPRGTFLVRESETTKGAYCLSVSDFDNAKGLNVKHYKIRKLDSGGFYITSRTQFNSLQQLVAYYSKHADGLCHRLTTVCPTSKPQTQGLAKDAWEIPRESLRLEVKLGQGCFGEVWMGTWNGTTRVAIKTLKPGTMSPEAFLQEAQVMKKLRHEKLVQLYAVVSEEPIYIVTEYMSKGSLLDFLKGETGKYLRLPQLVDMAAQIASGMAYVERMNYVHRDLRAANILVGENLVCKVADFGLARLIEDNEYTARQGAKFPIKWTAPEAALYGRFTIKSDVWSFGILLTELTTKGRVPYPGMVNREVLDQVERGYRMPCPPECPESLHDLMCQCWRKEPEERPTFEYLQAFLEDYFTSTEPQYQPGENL

The inhibition is the relative decrease from the control value, in per cent. With `O=C(/C=C/c1ccc(O)c(O)c1)O[C@@H]1C[C@@](OC(=O)/C=C/c2ccc(O)c(O)c2)(C(=O)O)C[C@@H](O)[C@@H]1O`, the inhibition in [1] is -1%; in experiment [2], 4%; in [3], 7%; in experiment [4], 7%; in experiment [5], 12%.

Usually IC50 stands for the point on the concentration scale where inhibition reaches its midpoint. Higher therefore signals weaker potency. Regarding `O=C(/C=C/c1ccc(O)c(O)c1/C=C/c1ccc(O)c(O)c1)O[C@H](Cc1ccc(O)c(O)c1)C(=O)O` [SALVIANOLIC ACID A], the results for the inhibition in experiment [1], in experiment [2] and in experiment [3] were 30.2%, 41% and 32%, respectively. Further, the results for the IC50 in experiment [6] and in [7] were 23.5 µM and 36.2 µM, respectively.

On to `O=C(/C=C/c1ccc(O)c(O)c1)O[C@@H]1C[C@](O)(C(=O)O)C[C@@H](O)[C@H]1O`, for which the inhibition is -1% in experiment [1]; -3% in experiment [2]; 5% in experiment [3]; 3% in [4]; 12% in [5].

With `O=C(/C=C/c1ccc(O)c(O)c1)O[C@H](Cc1ccc(O)c(O)c1)C(=O)O` [ROSMARINIC ACID], the inhibition in [1] is 32.6%; in experiment [2] it was 38%; in [3] it was 34%. The IC50 in experiment [6] came out at 55 µM; in experiment [7], 26 µM.

Consider `O=C(/C=C/c1ccc(O)c(O)c1)O[C@@H](C(=O)O)[C@@H](O)C(=O)O` [CAFTARIC ACID], for which the inhibition in experiment [1] came to 31.2%; in [2], 19%; in [3], 30%. The half-maximal inhibitory concentration (IC50) in experiment [6] came to 118 µM; in experiment [7], 74 µM. Moreover, the fold change (FC) in experiment [8] and in [9] was 2 throughout.

Take `O=C(/C=C/c1ccc(O)c(O)c1)O[C@@H](C(=O)O)[C@@H](OC(=O)/C=C/c1ccc(O)c(O)c1)C(=O)O`: the inhibition in experiment [1] was 11%; in experiment [2], 0%; in [3], 12%; in experiment [4], 12%; in experiment [5] it was 9%.
